Measured values taken from patent US9096863B2, “Biosynthetic engineering of glucosinolates” (University of Denmark, priority 2008, dated 2015).
Values joined by “and” are separate entries in the source; they are usually repeats but may differ in a detail not shown here. Equal entries are not always repeated.

Legend:
GGP1 [1] = target: T1, GGP1 (Arabidopsis thaliana, UniProt Q9M0A7); settings: GS-X as substrate, 10 to 90 μM; purified recombinant His-tagged GGP1; ± SE; Michaelis-Menten fit
T1 sequence (Q9M0A7 1-250): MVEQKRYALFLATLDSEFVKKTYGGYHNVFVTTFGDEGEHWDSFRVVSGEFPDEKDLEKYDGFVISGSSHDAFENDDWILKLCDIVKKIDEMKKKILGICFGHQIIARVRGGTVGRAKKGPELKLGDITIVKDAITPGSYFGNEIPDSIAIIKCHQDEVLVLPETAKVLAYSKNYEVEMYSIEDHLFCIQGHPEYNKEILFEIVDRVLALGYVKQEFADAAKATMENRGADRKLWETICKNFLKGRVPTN
Protocol: Recombinant GGP1 was expressed in E. coli from the vector pRSET-A (Invitrogen) as an N-terminal His-tag fusion. Cells were grown in LB medium and induced by adding 0.02 mM IPTG at an OD600 of 0.1-0.4. After 16 hours of incubation at 18° C. and 220 rpm, cells were harvested and resuspended in binding buffer [100 mM Tris-HCl, 500 mM NaCl, 50 mM imidazole, pH 7.5] supplemented with 1 mM PMSF and 1 mM MgCl. Cell lysis was achieved by lysozyme treatment and subsequent sonication. Cell debris was spun down for 20 min at 20 000 g, and the supernatant was run through a Ni-NTA column. The column was washed with binding buffer, and bound protein was released with elution buffer [100 mM Tris-HCl, 500 mM NaCl, 500 mM imidazole, pH 7.5]. As a control, a parallel purification was performed for an empty pRSET-A vector.
200 ng of purified GGP1 or 200 ng of control protein were assayed in a final volume of 100 μL containing 20 mM Tris-HCl pH 7.5 and 20 μM GS-X. The reactions were stopped after 10 min upon addition of 300 μL methanol. After an overnight incubation at −20° C., the mixture was spun down for 20 min at 5 000 g and 200 μL of the supernatant were evaporated and redisolved in 50 μL of 75% methanol. Analysis was performed using the LC-MS/MS method previously described. For the determination of Km, similar assays were performed using a range of GS-X concentrations spanning from 10 to 90 μM. […]

GGP1 [2] = target: T1, GGP1; experiment: In-vitro assay for GGP1 activity with the standard substrate GPNA (absorbance at 405 nm); assay type: biochemical; design: His-tag (pRSET-A N-terminal leader) (N); made in house; host or cells: E. coli; settings: 1 mM GPNA, crude E. coli extract, linear part of the GGP1 curve
Protocol: In vitro assays were assembled with […] of crude protein extract from a cleared E. coli lysate (before column purification) in 0.1 M Tris-HCl at pH 7.5 to a total volume of 150 μl. Assay is initiated by addition of GPNA to a final concentration of 1 mM and enzyme activity is measured by absorbance at 405 nm. Absorbance was measured with 5 minute intervals from time 0-20 minutes using a spectrophotometer.

Compound	Km (GGP1 [1])	activity of crude extract containing recombinant GGP1 versus control extract (cleavage to p-nitroanilide) (GGP1 [2])
NC(CCC(=O)NC(CSC(Cc1ccccc1)=NO)C(=O)NCC(=O)O)C(=O)O [GS-X, S-(phenylacetohydroxymoyl)-L-glutathione]	56.6 µM and 57 µM	
N[C@@H](CCC(=O)Nc1ccc([N+](=O)[O-])cc1)C(=O)O [GPNA, gamma-glutamyl-p-nitroanilide]		around 10 times
